In patent publication US20040151618A1, “Method of increasing the conductivity of water and uses therefor” (priority 2002, published 2004):

Experiments:
[1] = system: grass; assay: Plant growth retarder: patch of grass sprayed (Example 9); format: in vivo; details: sprayed with water with 10% by weight sodium benzoate, 24 hours
Source text: A patch of grass about two feet in diameter was sprayed with water having a 10% concentration by weight of sodium benzoate . At the time that the water having the 10% concentration of sodium benzoate was sprayed on this patch of grass the sprayed patch as well as the surrounding grass areas were green and healthy looking.

[2] = system: mold; assay: Mold and odor on treated wet lap pulp (Example 5); format: cell-based; details: wet lap pulp treated with water with 1% sodium benzoate, almost a year
Source text: A like portion of wet lap pulp from the same batch as the above wet lap pulp was not treated (wet lap pulp is moist and contains tap water) but was isolated for observation and comparison.

[3] = system: psychrotrophic microorganisms; assay: Count of psychrotrophic microorganisms in minced cod fish fillets stored at 1-2° C. (Plate Count Agar, pour-plate); format: cell-based; set-up: Count of psychrotrophic microorganisms in sample with 0.1% Sodium Benzoate solution: unit not given here; details: for Count of psychrotrophic microorganisms in sample with 1% Sodium Benzoate solution: Example 11; for Count of psychrotrophic microorganisms in sample with 0.1% Sodium Benzoate solution: Example 12
Procedure: Cod fish fillets which were frozen at sea were thawed and minced. The minced fillets were divided into two 200 gram portions. To one portion, 20 milliliters of sterile, deionized water was added (10%) and to the other 20 milliliters of the sodium benzoate solution of this invention containing 1% benzoate was added. Both portions were stirred and then placed at 1-2° C. for storage. Samples were taken 2 hours, 7 days and 14 days after mixing. Counts of psychrothrophic microorganisms was done on Plate Count Agar with 0.5% NaCl added by the pour-plate technique. Plated were incubated at 22° C. for 3 days prior to counting colonies. When a nutrient agar-type medium is incubated, using the streak-plate or pour-plate method, cells are individually separated. In incubation, individual cells reproduce rapidly to generate a visible colony of cells, each colony being a pure sample of a single kind of microorganism.
In the above example, a 1% sodium benzoate solution was used, which is considered to be a stronger than acceptable for a food product, and thus a further tests were performed. In these second tests cod fish fillets which were frozen at sea were thawed and minced. The minced fillets were divided into two 200 gram portions. To one portion, 2 milliliters of sterile, deionized water was added and to the other […] of the sodium benzoate solution of this invention containing 0.1% benzoate was added. As a result in this test the other portion contained only 10% of the amount of benzoate as was in EXAMPLE 11. In other words EXAMPLE 11 was a 1% sodium benzoate solution and EXAMPLE 12 is a 0.1% sodium benzoate solution. Both portions were stirred and then placed at 1-2° C. for storage. Samples were taken 2 hours, 7 days, 14 days and 18 after mixing. Counts of psychrothrophic microorganisms was done on Plate Count Agar with 0.5% NaCI added by the pour-plate technique. Plated were incubated at 22° C. for 3 days prior to counting colonies.

[4] = system: mold; assay: Mold in opened cranberry-raspberry drink (Example 6); format: cell-based; details: drink with about 1.9% sodium benzoate, three weeks
Procedure: A commercially available 16 ounce bottle of cranberry-raspberry drink was opened and one ounce of water having a 30% concentrations of sodium benzoate was added to the contents of the bottle. The resulting cranberry-raspberry drink thus had about a 1.9% concentration of sodium benzoate. A second bottle of the same commercially available drink was opened but not treated in any way.

[5] = Iron count of applicant after daily drinking of the solution; format: in vivo, human; details: daily drinking of 0.1% solution blended in fruit juice
Source text: Furthermore, as a result of the higher conductivity of the sodium benzoate solution its electrical resistance is reduced which stabilizes organic colors and prevents their reversion. […] Also, in the pulp and paper industry the brightness of pulp is enhanced which is a result of applicant's solution impeding the deposition of iron. Also, impeding the iron content in drinking water can help to prevent an iron overload problem in humans and animals. Iron overload can result in cellular degradation that is similar to the rusting of a nail. Applicant's sodium benzoate solution can be used to prevent oxygen free radical degradation in humans and animals. Excess iron in human is very dangerous. Human consumption of applicant's solution could prevent hemochromatosis and the need for phlebotomy.

[6] = system: growing plant having green leaves and small white flowers; assay: Plant growth retarder: isolated growing plant sprayed (Example 7); format: in vivo; details: sprayed with water with 10% sodium benzoate, after six hours
Source text: A growing plant having green leaves and small white flowers was isolated from other plants of the same type. the isolated plant was sprayed with water having a 10% concentration of sodium benzoate. The other plants were not treated.

[7] = system: large potted plants having green leaves and red flowers; assay: Plant growth retarder: large potted plants watered (Example 10); format: in vivo; details: watered with water with 10% by weight sodium benzoate
Source text: Three large potted plants having green leaves and red flowers, each plant was about 3 feet tall, were utilized for this EXAMPLE. The three plants were aligned adjacent to each other in a sunny area. The large potted plant to the left was watered with tap water and the plants in the center and to the right were watered with water having a 10% concentration by weight of sodium benzoate. Two days after watering these three large potted plants, the plant to the left retained its green leaves and red flowers. However, the large plant in the center and the one to the right had undergone change. […] Four days after watering the plants the large plant in the center and the one to the right had undergone further change. […] The plant to the left retained its green leaves and red flowers.

[8] = Electrical conductivity of tap water with varying concentrations of sodium benzoate; format: physicochemical; details: 10% sodium benzoate plus ingredient that improves adhesion
Procedure: Tests were conducted to measure the electrical conductivity of tap water with varying concentrations of sodium benzoate. In these tests the conductivity has been measured in micromho/cm. One micromho/cm (UMHO/CM) equals one microsiemens/cm (US/CM). In other words a micromho is the same as a microsiemen.
In preparing a 1% solution of applicants solution 37.84 grams of sodium benzoate were dissolved in one gallon of tap water which weighs 3,784 grams. […] The conductivity of the various samples of applicant's invention that were subjected to these tests had conductivities ranging from 635 to 34,500 UMHO/CM. […] For solutions of other strengths, proportional amounts of sodium benzoate were added to a gallon of water. This invention is concerned with concentrations of sodium benzoate in the range of about 0.1% and greater. The current test results have been limited to a maximum concentration of about 10%.

[9] = system: potted plants each having green leaves and violet colored flowers; assay: Plant growth retarder: potted plant watered (Example 8); format: in vivo; details: watered with water with 10% sodium benzoate, after three days
Source text: Two similar potted plants each having green leaves and violet colored flowers were obtained for this example. One of the potted plants was watered with tap water and at the same time the other potted plant was watered with water that contained a 10% concentration of sodium benzoate.

[10] = system: mold; assay: Mold on dry dog food sprayed with solution (Example 4); format: cell-based; details: dry dog food sprayed with water with 1% sodium benzoate, three months
[11] = system: mold; assay: Mold on cornstarch immersed in solution (Example 3); format: cell-based; details: cornstarch in water with 1% sodium benzoate, four weeks
[12] = 0 days at 1-2° Centigrade (sample 2 hours after mixing)

## O=C([O-])c1ccccc1.[Na+] [Sodium Benzoate, sodium benzoate]
[1]
  Growth Stunned: appeared straw like and there was no longer any green appearing
[2]
  No Mold: no evidence of mold or odor
[3]; 0.1% sodium benzoate solution
  Shelf life of fresh seafood maintained at 1-2° C.: at least 14 days
[3]; 1% sodium benzoate solution
  Shelf life of fresh seafood maintained at 1-2° C.: at least 14 days
[3]; [12]
  Count of psychrotrophic microorganisms in sample with 1% Sodium Benzoate solution: 5
  Count of psychrotrophic microorganisms in sample with 0.1% Sodium Benzoate solution: 4.21
[3]; 7 days at 1-2° Centigrade
  Count of psychrotrophic microorganisms in sample with 1% Sodium Benzoate solution: 4.8
  Count of psychrotrophic microorganisms in sample with 0.1% Sodium Benzoate solution: 4.79
[3]; 14 days at 1-2° Centigrade
  Count of psychrotrophic microorganisms in sample with 1% Sodium Benzoate solution: 5.2
  Count of psychrotrophic microorganisms in sample with 0.1% Sodium Benzoate solution: 6.17
[3]; 18 days at 1-2° Centigrade
  Count of psychrotrophic microorganisms in sample with 0.1% Sodium Benzoate solution: 8.09
[4]
  No Mold: no evidence of mold
[5]
  Iron count: reduced to normal levels
[6]
  Growth Stunned: shriveled and dried up
[7]; four days after watering
  Growth Stunned: remains of the flowers were now brown and only a few brown leaves remained on the branches
[7]; two days after watering
  Appearance of plants: flowers were no longer red and instead appeared pink and white and the leaves were drooping and were a much lighter shade of green
[8]
  Conductivity of 10% solution with coating additive compared with 10% solution without: substantially the same
[9]
  Growth Stunned: weathered and dried up
[10]
  No Mold: no evidence of mold
[11]
  No Mold: no evidence of mold
